System: murine allantois
Assay: Allantois explant culture: de novo vascular development, immunolabeling and confocal analysis
Assay type: cell-based, mouse
Protocol: Allantoides of 7.5dpc embryos were excised, washed in EPBS (4° C.) and then pipetted into Nunc 4 chambered culture slides (Fisher Scientific Co., Suwanee, Ga.) containing 0.4 ml of DMEM, 10% Fetal Bovine Serum, and 1% Penicillin Streptomycin. Explants were cultured at 37° C. in a 5% CO2 incubator for 12-20 hours and then fixed and permeabilized as described above. The explants were blocked in 3% BSA/PBSA 12-18 hrs, exposed to PECAM antibodies (1.5 hours, 26° C.), washed 3×40 minutes in PBSA, incubated in appropriate secondary antibodies (1.5 hours, 26° C.), washed in PBSA 3×30 minutes, and mounted as described above.
Embryos were analyzed using a Bio-Rad MRC 1024 Laser Scanning Confocal Microscope (Bio-Rad Microscopy Division, Cambridge, Mass.). Optical sectioning along the dorsoventral axis (Z-axis) was performed and the images collapsed into a single focal plane using manufacturer's software. Differential Interference Contrast (DIC) images were generated using a research grade Leitz™ photomicroscope equipped with a Photometrics™ (Tucson, Ariz.) Quantix CCD camera. Images were processed using NIH Image 1.62 software (NIH, Bethesda, Md.) and Adobe Photoshop 5.0 (Adobe Systems, Inc., San Jose, Calif.). […]

In the case of VEGF, the “vascular pattern (PECAM immunolabeling)” value (7.0 dpc allantois cultured 24 hours with VEGF 2 μg/ml (FIG. 3c)) is reported as “overall sinusoidal vascular pattern” and the vascular phenotype (allantois cultures, recombinant VEGF 2 μg/ml, 24 hr) is reported as “hyperfused vascular phenotype”.
